Test results reported in ChEMBL document CHEMBL4610109, “Targeting Orthosteric and Allosteric Pockets of Aromatase via Dual-Mode Novel Azole Inhibitors” (ACS Med Chem Lett, 2020).

How the values were obtained:
MCF7 = experiment: Growth inhibition of human ER-positive MCF7 cells incubated for 72 hrs by cell counter method; type: functional; conditions: MCF7, 72 h
MDA-MB-231 = experiment: Growth inhibition of human ER-negative MDA-MB-231 cells incubated for 72 hrs by cell counter method; type: functional; conditions: MDA-MB-231, 72 h
Aromatase = target: T1, Aromatase (Homo sapiens, UniProt P11511); experiment: Inhibition of recombinant human aromatase preincubated for 10 mins followed by substrate and beta-NADP+ addition and measured for 60 mins by fluorescence based assay
T1 sequence (P11511 whole entry): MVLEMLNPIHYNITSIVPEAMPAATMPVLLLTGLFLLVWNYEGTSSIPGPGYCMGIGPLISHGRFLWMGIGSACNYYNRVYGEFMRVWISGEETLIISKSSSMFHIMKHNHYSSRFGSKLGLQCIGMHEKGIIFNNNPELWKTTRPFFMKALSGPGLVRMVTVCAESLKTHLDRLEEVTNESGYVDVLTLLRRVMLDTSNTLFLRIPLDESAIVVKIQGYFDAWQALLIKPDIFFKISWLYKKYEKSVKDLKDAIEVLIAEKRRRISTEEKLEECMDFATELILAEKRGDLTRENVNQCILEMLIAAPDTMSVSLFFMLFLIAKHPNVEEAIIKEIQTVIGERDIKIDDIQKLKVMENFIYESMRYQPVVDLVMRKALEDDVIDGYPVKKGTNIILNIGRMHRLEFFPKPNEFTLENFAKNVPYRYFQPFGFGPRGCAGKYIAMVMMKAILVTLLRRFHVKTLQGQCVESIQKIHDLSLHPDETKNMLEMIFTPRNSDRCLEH

SMILES	GI50 (MCF7)	GI50 (MDA-MB-231)	IC50 (Aromatase)
O=c1c2ccccc2oc2cccc(Cn3ccnc3)c12	59 µM	44.3 µM	
O=c1c2ccccc2oc2c(Cn3ccnc3)cccc12	69.1 µM	58.3 µM	
O=c1c2ccccc2oc2cc(Cn3ccnc3)ccc12	19.9 µM	30.4 µM	
CCC#CCOc1ccc2c(=O)c3ccc(Cn4ccnc4)cc3oc2c1	> 100 µM	> 100 µM	0.77 µM
CCC#CCOc1cc(Cn2ccnc2)c2oc3ccccc3c(=O)c2c1	52.3 µM	21.1 µM	5.55 µM
CCC#CCOc1cc(Cn2ccnc2)c2c(=O)c3ccccc3oc2c1	6.3 µM	17.5 µM	2.85 µM
N#Cc1ccc(C(c2ccc(C#N)cc2)n2cncn2)cc1 [LETROZOLE]		34 µM	
